molecular target: T1, human CXCR3 (Homo sapiens, UniProt P49682); test: [35S]GTPγS exchange assay, CXCR3 receptor inhibition (hI-TAC-induced GTPγS-binding); type: biochemical; details: -log IC50 (molar) inhibiting 50% of specific I-TAC-induced GTPγS-binding; membranes of human CXCR3-transfected CHO cells
T1 construct: expressed in transfected cells; host or cells: CHO cells (membrane preparation)
T1 sequence (P49682 1-368): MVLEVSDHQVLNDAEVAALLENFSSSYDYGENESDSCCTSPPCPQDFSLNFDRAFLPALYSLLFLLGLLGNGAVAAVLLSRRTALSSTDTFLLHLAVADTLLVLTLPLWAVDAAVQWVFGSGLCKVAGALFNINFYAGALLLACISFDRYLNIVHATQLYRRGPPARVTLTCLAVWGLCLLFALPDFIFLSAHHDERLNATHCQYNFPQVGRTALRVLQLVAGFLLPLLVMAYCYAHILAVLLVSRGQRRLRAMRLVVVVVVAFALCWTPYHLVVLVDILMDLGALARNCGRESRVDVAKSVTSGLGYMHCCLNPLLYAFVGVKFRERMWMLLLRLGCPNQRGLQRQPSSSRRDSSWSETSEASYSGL
Procedure: CXCR3 Receptor Inhibition was Examined in a [^35S]GTPγS Exchange Assay
The exchange of guanosine 5′-[^35S]triphosphate was measured on membranes of human CXCR3-transfected CHO cells. [^35S]GTPγS exchange assays were performed in 96-well plates with 10 μg of membrane protein/well using basic flashplates (Perkin Elmer). Compounds were dissolved in DMSO and diluted with incubation buffer to yield required concentrations with 9% DMSO. Incubation buffer is composed of 20 mM HEPES, 100 mM NaCl, 3 μM GDP and 1 mM MgCl2, pH 7.4. […] Compound, membranes, hI-TAC (interferon-inducible T-cell alpha chemoattractant) and [^35S]GTPγS were added in a total volume of 200 μl. First, 20 μl of the appropriate compound dilution and 140 μl membranes from CXCR3-CHO cells were dissolved in membrane incubation buffer and pre-incubated for 30 minutes at 30° C. Then, 20 μl of hI-TAC dissolved at 30 nM in incubation buffer was added to the membranes and the mixture containing 1% of DMSO was incubated for another 30 minutes at 30° C. […] After 1 minute shaking and 30 minutes incubation at 30° C., flashplates were centrifuged for 5 minutes at 2500 rpm at room temperature. Flashplate bound radioactivity was determined by liquid scintillation counting. Basal GTPγS-binding was measured in 8 wells with membranes incubated in the same volume with 1% DMSO, without I-TAC. Maximal GTPγS-binding was measured in 8 wells with membranes incubated with 1% DMSO and 3 nM I-TAC. […] IC50 values were calculated using non-linear regression in Graphpad Prism.

Row | Compound | pIC50
1 | O=C1CCC(c2ccccc2)(C2CCN(Cc3ccc(Cl)c(Cl)c3)CC2)C(=O)N1 (stereo not drawn) [Compound 80] | 5.9
2 | O=C1CCC(c2cccc(C(=O)NCCCO)c2)(C2CCN(Cc3ccc(Br)cc3)CC2)C(=O)N1 (stereo not drawn) [Compound 91] | 5.9
3 | CCN1C(=O)CCC(c2ccccc2)(C2CCN(Cc3ccc(Br)cc3)CC2)C1=O (stereo not drawn) [Compound 126] | 5.6
4 | CC(C)N1C(=O)CCC(c2ccccc2)(C2CCN(Cc3ccc(Br)cc3)CC2)C1=O (stereo not drawn) [Compound 127] | 5.3
5 | COCCN1C(=O)CCC(c2ccccc2)(C2CCN(Cc3ccc(Br)cc3)CC2)C1=O (stereo not drawn) [Compound 129] | 5.7

same assay, conditions: -log IC50 (molar) inhibiting 50% of specific I-TAC-induced GTPγS-binding; membranes of human CXCR3-transfected CHO cells; read-out: pIC50 (converted)

Row | IC50 [nM] | Compound
6 | 3160 | COc1ccc(C2(C3CCN(Cc4ccc(Cl)cc4)CC3)CCC(=O)NC2=O)cc1 (stereo not drawn) [Compound 69]
7 | 2510 | O=C1CCC(c2ccccc2)(C2CCN(Cc3ccc(Cl)cc3Cl)CC2)C(=O)N1 (stereo not drawn) [Compound 70]
8 | 2510 | O=C1CCC(c2cccc(Cl)c2)(C2CCN(Cc3ccc(Cl)cc3Cl)CC2)C(=O)N1 (stereo not drawn) [Compound 71]
9 | 6310 | Cc1cccc(C2(C3CCN(Cc4ccc(Cl)cc4Cl)CC3)CCC(=O)NC2=O)c1 (stereo not drawn) [Compound 72]
10 | 501 | O=C1CCC(c2cccc(C(=O)O)c2)(C2CCN(Cc3ccc(Cl)cc3Cl)CC2)C(=O)N1 (stereo not drawn) [Compound 73]
11 | 251 | COc1cccc(C2(C3CCN(Cc4ccc(Cl)c(F)c4)CC3)CCC(=O)NC2=O)c1 (stereo not drawn) [Compound 79]
12 | 3980 | O=C1CCC(c2cccc(Cl)c2)(C2CCN(Cc3ccc(Cl)c(Cl)c3)CC2)C(=O)N1 (stereo not drawn) [Compound 81]
13 | 3160 | Cc1cccc(C2(C3CCN(Cc4ccc(Cl)c(Cl)c4)CC3)CCC(=O)NC2=O)c1 (stereo not drawn) [Compound 82]
14 | 398 | O=C1CCC(c2cccc(C(=O)O)c2)(C2CCN(Cc3ccc(Cl)c(Cl)c3)CC2)C(=O)N1 (stereo not drawn) [Compound 83]
15 | 2000 | COc1cccc(C2(C3CCN(Cc4ccc(Cl)c(Cl)c4)CC3)CCC(=O)NC2=O)c1 (stereo not drawn) [Compound 84]
16 | 794 | O=C1CCC(c2ccc(F)cc2)(C2CCN(Cc3ccc(Cl)c(Cl)c3)CC2)C(=O)N1 (stereo not drawn) [Compound 85]
17 | 1580 | O=C1CCC(c2cccc(Cl)c2)(C2CCN(Cc3ccc(Br)cc3)CC2)C(=O)N1 (stereo not drawn) [Compound 89]
18 | 1580 | O=C1CCC(c2cccc(C(F)(F)F)c2)(C2CCN(Cc3ccc(Br)cc3)CC2)C(=O)N1 (stereo not drawn) [Compound 90]
19 | 1000 | O=C1CCC(c2ccc(F)cc2)(C2CCN(Cc3ccc(Br)cc3)CC2)C(=O)N1 (stereo not drawn) [Compound 92]
20 | 3980 | COc1ccc(C2(C3CCN(Cc4ccc(Br)cc4)CC3)CCC(=O)NC2=O)cc1 (stereo not drawn) [Compound 93]
21 | 1580 | O=C1CCC(c2cccc(Cl)c2)(C2CCN(Cc3ccc(Br)cc3F)CC2)C(=O)N1 (stereo not drawn) [Compound 95]
22 | 3160 | O=C1CCC(c2cccc(C(F)(F)F)c2)(C2CCN(Cc3ccc(Br)cc3F)CC2)C(=O)N1 (stereo not drawn) [Compound 96]

Row | IC50 [nM] | Compound
23 | 501 | O=C1CCC(c2cccc(C(=O)O)c2)(C2CCN(Cc3ccc(Br)cc3F)CC2)C(=O)N1 (stereo not drawn) [Compound 97]
24 | 398 | O=C1CCC(c2cccc(C(=O)O)c2)(C2CCN(Cc3ccc(Br)c(F)c3)CC2)C(=O)N1 (stereo not drawn) [Compound 99]
25 | 3980 | O=C1CCC(c2ccc(F)cc2)(C2CCN(Cc3ccc(C(F)(F)F)cc3)CC2)C(=O)N1 (stereo not drawn) [Compound 106]
26 | 3980 | COc1ccc(CN2CCC(C3(c4ccccc4)CCC(=O)NC3=O)CC2)cc1 (stereo not drawn) [Compound 107]
27 | 7940 | COc1ccc(CN2CCC(C3(c4ccccc4)CCC(=O)NC3=O)CC2)c(OC)c1 (stereo not drawn) [Compound 108]
28 | 7940 | O=C1CCC(c2cccc(C(F)(F)F)c2)(C2CCN(Cc3ccc(OC(F)F)cc3)CC2)C(=O)N1 (stereo not drawn) [Compound 110]
29 | 1000 | O=C1CCC(c2ccc(F)cc2)(C2CCN(Cc3ccc(OC(F)F)cc3)CC2)C(=O)N1 (stereo not drawn) [Compound 111]
30 | 7940 | O=C1CCC(c2cccc(Cl)c2)(C2CCN(Cc3ccc(OC(F)(F)F)cc3)CC2)C(=O)N1 (stereo not drawn) [Compound 114]
31 | 6310 | CSc1ccc(CN2CCC(C3(c4cccc(Cl)c4)CCC(=O)NC3=O)CC2)cc1 (stereo not drawn) [Compound 117]
32 | 6310 | O=C1CCC(c2ccccc2)(C2CCN(Cc3ccc(OCc4ccccc4)cc3)CC2)C(=O)N1 (stereo not drawn) [Compound 119]
33 | 1580 | CN1C(=O)CCC(c2ccccc2)(C2CCN(Cc3ccc(Cl)cc3)CC2)C1=O (stereo not drawn) [Compound 120]
34 | 6310 | COC(=O)CCN1C(=O)CCC(c2ccccc2)(C2CCN(Cc3ccc(Cl)cc3)CC2)C1=O (stereo not drawn) [Compound 121]
35 | 5010 | CN1C(=O)CCC(c2ccccc2)(C2CCN(Cc3ccc(Cl)c(Cl)c3)CC2)C1=O (stereo not drawn) [Compound 122]
36 | 1000 | COC(=O)CCN1C(=O)CCC(c2ccccc2)(C2CCN(Cc3ccc(Cl)cc3Cl)CC2)C1=O (stereo not drawn) [Compound 124]
37 | 3980 | CCCN1C(=O)CCC(c2ccccc2)(C2CCN(Cc3ccc(Br)cc3)CC2)C1=O (stereo not drawn) [Compound 128]
38 | 3980 | COC(=O)CCN1C(=O)CCC(c2ccccc2)(C2CCN(Cc3ccc(Br)cc3)CC2)C1=O (stereo not drawn) [Compound 130]
39 | 3980 | CN1C(=O)CCC(c2ccccc2)(C2CCN(Cc3ccc(C(F)(F)F)cc3)CC2)C1=O (stereo not drawn) [Compound 131]

Row | Compound | IC50 [nM]
40 | COc1cccc(C2(C3CCN(Cc4ccc(Cl)cc4Cl)CC3)CCC(=O)NC2=O)c1 (stereo not drawn) [Compound 74] | 3980
41 | O=C1CCC(c2ccc(F)cc2)(C2CCN(Cc3ccc(Cl)cc3Cl)CC2)C(=O)N1 (stereo not drawn) [Compound 75] | 2510
42 | O=C1CCC(c2cccc(Cl)c2)(C2CCN(Cc3ccc(Cl)c(F)c3)CC2)C(=O)N1 (stereo not drawn) [Compound 77] | 794
43 | Cc1cccc(C2(C3CCN(Cc4ccc(Cl)c(F)c4)CC3)CCC(=O)NC2=O)c1 (stereo not drawn) [Compound 78] | 794
44 | O=C1CCC(c2ccccc2)(C2CCN(Cc3ccc(Br)cc3F)CC2)C(=O)N1 (stereo not drawn) [Compound 94] | 501
45 | O=C1CCC(c2ccc(F)cc2)(C2CCN(Cc3ccc(Br)cc3F)CC2)C(=O)N1 (stereo not drawn) [Compound 98] | 631
46 | Cc1ccc(CN2CCC(C3(c4cccc(C)c4)CCC(=O)NC3=O)CC2)cc1 (stereo not drawn) [Compound 101] | 2510
47 | O=C1CCC(c2ccccc2)(C2CCN(Cc3ccc(C(F)(F)F)cc3)CC2)C(=O)N1 (stereo not drawn) [Compound 102] | 3980
48 | O=C1CCC(c2cccc(Cl)c2)(C2CCN(Cc3ccc(C(F)(F)F)cc3)CC2)C(=O)N1 (stereo not drawn) [Compound 103] | 3980
49 | Cc1cccc(C2(C3CCN(Cc4ccc(C(F)(F)F)cc4)CC3)CCC(=O)NC2=O)c1 (stereo not drawn) [Compound 104] | 3980
50 | O=C1CCC(c2ccccc2)(C2CCN(Cc3ccc(OC(F)F)cc3)CC2)C(=O)N1 (stereo not drawn) [Compound 109] | 1000
51 | O=C1CCC(c2ccccc2)(C2CCN(Cc3ccc(OC(F)(F)F)cc3)CC2)C(=O)N1 (stereo not drawn) [Compound 112] | 1000
52 | O=C1CCC(c2ccc(F)cc2)(C2CCN(Cc3ccc(OC(F)(F)F)cc3)CC2)C(=O)N1 (stereo not drawn) [Compound 113] | 5010
53 | CSc1ccc(CN2CCC(C3(c4ccccc4)CCC(=O)NC3=O)CC2)cc1 (stereo not drawn) [Compound 116] | 5010

same assay, conditions: pIC50, -log IC50 (molar) inhibiting 50% of specific I-TAC-induced GTPγS-binding; membranes of human CXCR3-transfected CHO cells

Row | Compound | IC50 [nM]
54 | O=C1CCC(c2ccccc2)(C2CCN(Cc3ccc(Cl)c(C(F)(F)F)c3)CC2)C(=O)N1 (stereo not drawn) [Compound 86] | 2000
55 | O=C1CCC(c2ccccc2)(C2CCN(Cc3ccc(Br)cc3)CC2)C(=O)N1 (stereo not drawn) [Compound 87] | 794
56 | O=C1CCC(c2ccccc2)(C2CCN(Cc3ccc(Br)cc3)CC2)C(=O)N1 (stereo not drawn) [Compound 88] | 1260

same assay, conditions: read-out: pIC50 (converted)

Row | IC50 [nM] | Compound
57 | 316 | O=C1CCC(c2ccccc2)(C2CCN(Cc3ccc(Cl)c(F)c3)CC2)C(=O)N1 (stereo not drawn) [Compound 76]
